Test results taken from patent US20080254487A1, “Connective Tissue Growth Factor Signaling” (FIBROGEN, INC., priority 2004, published 2008).

T1: recombinant human CTGF (rhCTGF) (Homo sapiens, UniProt P29279)
T1 construct: in the presence of no CTGF, full-length CTGF, the N-terminal half of CTGF (NH2 fragment); made in house; host or cells: Hi5 insect cells infected with baculovirus (pFASTBAC1; virus generated in Sf9)
T1 sequence (P29279 27-349): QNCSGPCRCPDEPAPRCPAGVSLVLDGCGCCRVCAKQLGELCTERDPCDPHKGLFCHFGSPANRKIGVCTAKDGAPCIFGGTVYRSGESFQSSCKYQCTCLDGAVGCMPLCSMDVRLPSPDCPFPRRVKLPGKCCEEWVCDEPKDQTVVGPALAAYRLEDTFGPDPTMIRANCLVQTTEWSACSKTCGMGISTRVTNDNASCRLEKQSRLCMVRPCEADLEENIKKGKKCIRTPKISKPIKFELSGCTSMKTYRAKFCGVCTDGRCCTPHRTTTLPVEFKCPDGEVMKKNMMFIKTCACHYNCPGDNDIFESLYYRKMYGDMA

T2: CTGF (Homo sapiens, UniProt P29279)
T2 sequence (P29279 27-349): T1 sequence (P29279 27-349)

T3: CTGF and betaglycan (Homo sapiens, UniProt P29279)
T3 sequence (P29279 27-349): T1 sequence (P29279 27-349)

B1: sBetaglycan: soluble betaglycan (TGF-β type III receptor), a heparan sulfate proteoglycan (protein, UniProt Q03167 21-787, looked up)
extracellular domain: GPEPGALCELSPVSASHPVQALMESFTVLSGCASRGTTGLPQEVHVLNLRTAGQGPGQLQREVTLHLNPISSVHIHHKSVVFLLNSPHPLVWHLKTERLATGVSRLFLVSEGSVVQFSSANFSLTAETEERNFPHGNEHLLNWARKEYGAVTSFTELKIARNIYIKVGEDQVFPPKCNIGKNFLSLNYLAEYLQPKAAEGCVMSSQPQNEEVHIIELITPNSNPYSAFQVDITIDIRPSQEDLEVVKNLILILKCKKSVNWVIKSFDVKGSLKIIAPNSIGFGKESERSMTMTKSIRDDIPSTQGNLVKWALDNGYSPITSYTMAPVANRFHLRLENNAEEMGDEEVHTIPPELRILLDPGALPALQNPPIRGGEGQNGGLPFPFPDISRRVWNEEGEDGLPRPKDPVIPSIQLFPGLREPEEVQGSVDIALSVKCDNEKMIVAVEKDSFQASGYSGMDVTLLDPTCKAKMNGTHFVLESPLNGCGTRPRWSALDGVVYYNSIVIQVPALGDSSGWPDGYEDLESGDNGFPGDMDEGDASLFTRPEIVVFNCSLQQVRNPSSFQEQPHGNITFNMELYNTDLFLVPSQGVFSVPENGHVYVEVSVTKAEQELGFAIQTCFISPYSNPDRMSHYTIIENICPKDESVKFYSPKRVHFPIPQADMDKKRFSFVFKPVFNTSLLFLQCELTLCTKMEKHPQKLPKCVPPDEACTSLDASIIWAMMQNKKTFTKPLAVIHHEAESKEKGPSMKEPNPISPPIFHGLDTLTV
modifications: extracellular domain
notes: soluble betaglycan (TGF-β type III receptor), a heparan sulfate proteoglycan

What was measured:
[1] = target: T1, recombinant human CTGF (rhCTGF); experiment: Cell adhesion assay (CTGF-mediated cell adhesion); assay type: cell-based; conditions: HFF cells; increasing concentrations added to the adhesion reaction; FIGS. 3C, 6A, 7A
Experimental: Methods for measuring cell adhesion mediated by CTGF are generally known to those skilled in the art. (See, e.g., Babic et al. (1999) Mol Cell Biol 19:2958-296; Ball et al. (2003) J Endocrinol 176:R1-7.) In some experiments, wells of a MAXISORP plate (Nunc Nalgene) were treated with 10 μg/ml recombinant human CTGF (rhCTGF) to directly adsorb CTGF to the well. Alternatively, wells were coated with a human monoclonal antibody specific for human CTGF, and then were blocked with bovine serum albumin to prevent non-specific binding. 2 μg/1 ml rhCTGF or fragments thereof, or a vehicle control was added to each well. Plates were then washed 3 times with PBS, cells were added at a seed density of approximately 8×10^3 cells/well, and plates were incubated for 45 minutes at 37° C. Wells were then washed twice, and the number of cells retained in each well was measured using a CYQUANT cell proliferation assay kit (Molecular Probes, Inc., Eugene Oreg.). Alternatively, attached cells were lysed in 2% Triton and lactate dehydrogenase (LDH) activity was measured using a cytotoxicity detection (LDH) kit (Roche Diagnostics Corp., Chicago, Ill.). LDH levels were compared against a standard curve generated using known numbers of cells, and results of experiment were expressed as numbers of attached cells per well.
CTGF has been described as a heparin-binding growth factor. As cells may carry a variety of proteoglycan moieties on their surface, e.g., heparan sulfate, chondroitin sulfate, etc. (see FIG. 3A), the following experiment was conducted to determine the specificity of CTGF for such moieties. The cell adhesion and cell binding assays were conducted as described in Examples 3.1 and 3.2, respectively, except prior to seeding cells were treated for 1 hour at 37° C. with either vehicle, 4 units/ml heparinase I, or 2 units/ml chondroitinase ABC.
To further examine the requirement for heparan sulfate proteoglycans in CTGF-mediated cell adhesion, adhesion was measured in the presence of increasing amounts of heparin. […]

CTGF [2] = target: T2, CTGF; experiment: CTGF binding assay (binding of CTGF to cells, FACS); assay type: cell-based; conditions: increasing concentrations of heparin or modified heparin, FIG. 4
Experimental: Methods for measuring binding of CTGF to cells are generally known to those skilled in the art. (See, e.g., Nishida (1998) Biochem Biophys Res Commun 247:905-909; Segarini et al. (2001) J Biol Chem 276:40659-40667.) In one method used herein, cells were suspended in media containing CTGF under conditions suitable for binding of CTGF to cellular targets, e.g., incubation at 4° C. Cells may optionally be treated prior to or concurrently with CTGF exposure; for example, cells may be treated with enzymes that alter cell surface moieties, molecules that compete competitively or non-competitively with CTGF for binding to cells, etc. Following incubation, cells were washed and then incubated with fluorescently-labeled anti-CTGF antibody. The level of CTGF binding was then measured using a FACS apparatus.
To determine the specificity of sulfation and charge distribution for CTGF-mediated cell adhesion and cell binding, experiments as described in Examples 3.1, 3.2, and 3.3, were performed with the following modification. Combination of HFF cells with CTGF was accompanied by addition of increasing concentrations of heparin that was modified to contain differing amounts of sulfation and/or acetylation.

CTGF [3] = target: T2, CTGF; experiment: CTGF displacement assay (endogenous CTGF displaced from cells, sandwich ELISA); assay type: cell-based; design: measured displacement of CTGF endogenously produced by cells; endogenous in cells; host or cells: HLF and MG63 cells (constitutive or TGF-β2-induced expression); conditions: HLF or MG63 cells; titrated amounts of sulfated polysaccharides; FIGS. 6B, 7B
Experimental: Alternatively, cell binding was measured using a CTGF displacement assay. The displacement assay used in the present examples measured displacement of CTGF endogenously produced by cells. HLF and MG63 cells were separately used in the displacement assay as follows. In all experiments, cells were plated in 96-well tissue culture plates at a seed density of 2.5×10^4 cells/well. Cells were incubated for approximately 24 hours at 37° C., and then medium was replaced with a serum-free medium containing titrated amounts of sulfated polysaccharides (glycosaminoglycans, GAGs). In some experiments, constitutive CTGF expression accounted for the displaced CTGF, whereas in other experiments additional levels of CTGF were induced by addition of TGF-β2 in culture media 30 minutes prior to change of media and addition of GAGs. MG63 cells were incubated for either 3 or 6 hrs, and HLF cells were incubated for 20 hrs, at 37° C., and then conditioned media was assayed for N-fragment and full-length CTGF using a sandwich ELISA assay. (See International Publication No. WO 03/024308.)
To determine size requirements for modulation of CTGF-mediated cell adhesion and cell binding, heparin moieties containing differing saccharide subunit number were examined. Polysaccharide lengths tested ranged from 10 to approximately 50 saccharides, and experiments were carried out as described in examples 3.1 and 3.3. […]

CTGF [4] = target: T2, CTGF; experiment: Co-immunoprecipitation assay, interaction with CTGF; assay type: binding; conditions: FIG. 8A, FIG. 9
Experimental: (§1) Co-immunoprecipitation is a purification procedure used to determine if two different molecules, e.g., proteins, directly interact. Basically, an antibody specific to a protein of interest is added to a cell lysis under conditions suitable for antibody binding to the protein. The antibody-protein complex is then collected, e.g., using protein-G sepharose, which binds most antibodies. Any molecules that are bound to the precipitated protein will also be collected. Identification of proteins can be determined by, e.g., western blot or by direct sequencing of the purified protein(s). Several commercial kits, e.g., the PROFOUND co-immunoprecipitation kit from Pierce Biotechnology, Inc. (Rockford Ill.) are also available.
(§2) In the present examples, co-immunoprecipitations were performed as follows. The surface of intact cells was iodinated with ^125I prior to lysing cells and fractionating on a CTGF affinity column. Alternatively, CTGF and labeled cells were incubated for a period sufficient for CTGF binding to cells, and then cells were lysed and immunoprecipitations were performed using anti-CTGF specific antibodies. Antibody complexes were collected from the lysate using protein-G sepharose, and pelleted by centrifugation. Proteins eluted from affinity columns or collected by immunoprecipitation were analyzed by fractionation on SDS-PAGE and visualized by autoradiography. […]

CTGF and betaglycan = target: T3, CTGF and betaglycan; experiment: Co-immunoprecipitation assay, binding between CTGF and betaglycan; conditions: soluble betaglycan, bFGF and CTGF mixed; dose-sensitive; FIG. 9
Experimental: as §1, §2

Molecule | CTGF-mediated (CTGF-dependent) cell adhesion, effect of added polysaccharide [1] | binding of CTGF to HFF, inhibition (CTGF [2]) | binding of CTGF to cells (displacement assay) (CTGF [3]) | interaction with CTGF (co-immunoprecipitation with anti-CTGF antibodies) (CTGF [4]) | binding between CTGF and betaglycan in the presence of the factor (CTGF and betaglycan)
heparin | inhibited | substantially inhibit |  |  | 
chondroitin sulfate [naturally sulfated chondroitin] | no modulation |  | no modulation |  | 
dermatan sulfate [naturally sulfated dermatan] | no modulation |  | no modulation |  | 
bFGF: basic fibroblast growth factor |  |  |  | clear interaction | adversely influenced
B1 |  |  |  | dose-sensitive interaction | 
